Test results reported in ChEMBL document CHEMBL4020779, “Thio-functionalized carbohydrate thiosemicarbazones and evaluation of their anticancer activity” (Bioorg Med Chem Lett, 2017).
Active and inactive are the calls of the source. The rule behind the calls is not given here.

Experiments:
[1] = system: LoVo; assay: Induction of apoptosis in human LoVo cells assessed as apoptotic cells at 0.106 uM after 24 hrs by Annexin-V-FITC/propidium iodide staining-based flow cytometric analysis (reference value: 7.9%); format: functional
[2] = system: HeLa; assay: Cytotoxicity against human HeLa cells after 72 hrs by CCK8 assay; format: functional, cell-based
[3] = system: M059J; assay: Genotoxicity in human M059J cells assessed as induction of DNA damage at 500 uM after 1 hr under alkaline condition by comet assay relative to control; format: functional
[4] = system: LoVo; assay: Genotoxicity in human LoVo cells assessed as induction of DNA damage at 500 uM after 1 hr under alkaline condition by comet assay relative to control; format: functional
[5] = system: A2780; assay: Cytotoxicity against human A2780 cells after 72 hrs by CCK8 assay; format: functional, cell-based; conditions: A2780, 72 h
[6] = system: A2780; assay: Genotoxicity in human A2780 cells assessed as induction of DNA damage at 500 uM after 1 hr under alkaline condition by comet assay relative to control; format: functional
[7] = system: LoVo; assay: Induction of apoptosis in human LoVo cells assessed as viable cells at 426 uM after 24 hrs by Annexin-V-FITC/propidium iodide staining-based flow cytometric analysis (reference value: 89.7%); format: functional; conditions: read-out: Activity
[8] = system: A2780; assay: Induction of apoptosis in human A2780 cells assessed as viable cells at 0.115 uM after 24 hrs by Annexin-V-FITC/propidium iodide staining-based flow cytometric analysis (reference value: 93.9%); format: functional; conditions: A2780, 24 h, read-out: Activity
[9] = system: A2780; assay: Induction of DNA fragmentation in human A2780 cells assessed as apoptotic cells at 0.115 uM after 24 hrs by BrdU/FITC staining-based TUNEL assay (reference value: 3.9%); format: functional
[10] = system: A2780; assay: Induction of DNA fragmentation in human A2780 cells assessed as apoptotic cells at 460.6 uM after 24 hrs by BrdU/FITC staining-based TUNEL assay (reference value: 3.9%); format: functional
[11] = system: LoVo; assay: Induction of DNA fragmentation in human LoVo cells assessed as apoptotic cells at 460.6 uM after 24 hrs by BrdU/FITC staining-based TUNEL assay (reference value: 0.8%); format: functional
[12] = system: MCF7; assay: Cytotoxicity against human MCF7 cells after 72 hrs by CCK8 assay; format: functional, cell-based; conditions: MCF7, 72 h
[13] = system: A2780; assay: Induction of oxidative stress in human A2780 cells assessed as increase in ROS level in cytoplasm at IC50 after 1 hr by H2DCF-DA probe based fluorescence assay; format: functional, cell-based
[14] = system: LoVo; assay: Induction of DNA fragmentation in human LoVo cells assessed as viable cells at 0.115 uM after 24 hrs by BrdU/FITC staining-based TUNEL assay (reference value: 99.2%); format: functional; conditions: read-out: Activity
[15] = system: LoVo; assay: Induction of apoptosis in human LoVo cells assessed as viable cells at 0.106 uM after 24 hrs by Annexin-V-FITC/propidium iodide staining-based flow cytometric analysis (reference value: 89.7%); format: functional; conditions: read-out: Activity
[16] = system: MCF7; assay: Genotoxicity in human MCF7 cells assessed as induction of DNA damage at 500 uM after 1 hr under alkaline condition by comet assay relative to control; format: functional
[17] = system: A2780; assay: Induction of apoptosis in human A2780 cells assessed as necrotic cells at 0.115 uM after 24 hrs by Annexin-V-FITC/propidium iodide staining-based flow cytometric analysis (reference value: 4.1%); format: functional
[18] = system: LoVo; assay: Induction of apoptosis in human LoVo cells assessed as necrotic cells at 0.106 uM after 24 hrs by Annexin-V-FITC/propidium iodide staining-based flow cytometric analysis (reference value: 2.9%); format: functional
[19] = system: M059J; assay: Cytotoxicity against human M059J cells after 72 hrs by CCK8 assay; format: functional, cell-based
[20] = system: HeLa; assay: Genotoxicity in human HeLa cells assessed as induction of DNA damage at 500 uM after 1 hr under alkaline condition by comet assay relative to control; format: functional
[21] = system: A2780; assay: Induction of apoptosis in human A2780 cells assessed as viable cells at 460.6 uM after 24 hrs by Annexin-V-FITC/propidium iodide staining-based flow cytometric analysis (reference value: 93.9%); format: functional; conditions: A2780, 24 h, read-out: Activity
[22] = system: A2780; assay: Induction of apoptosis in human A2780 cells assessed as apoptotic cells at 0.115 uM after 24 hrs by Annexin-V-FITC/propidium iodide staining-based flow cytometric analysis (reference value: 2%); format: functional
[23] = system: A2780; assay: Induction of oxidative stress in human A2780 cells assessed as increase in ROS level in cytoplasm at IC20 after 1 hr by H2DCF-DA probe based fluorescence assay; format: functional, cell-based
[24] = system: A2780; assay: Induction of apoptosis in human A2780 cells assessed as necrotic cells at 460.6 uM after 24 hrs by Annexin-V-FITC/propidium iodide staining-based flow cytometric analysis (reference value: 4.1%); format: functional
[25] = system: LoVo; assay: Cytotoxicity against human LoVo cells after 72 hrs by CCK8 assay; format: functional, cell-based
[26] = system: A2780; assay: Induction of DNA fragmentation in human A2780 cells assessed as viable cells at 460.6 uM after 24 hrs by BrdU/FITC staining-based TUNEL assay (reference value: 96.1%); format: functional; conditions: A2780, 24 h, read-out: Activity
[27] = system: LoVo; assay: Induction of apoptosis in human LoVo cells assessed as apoptotic cells at 426 uM after 24 hrs by Annexin-V-FITC/propidium iodide staining-based flow cytometric analysis (reference value: 7.9%); format: functional
[28] = system: LoVo; assay: Induction of DNA fragmentation in human LoVo cells assessed as apoptotic cells at 0.115 uM after 24 hrs by BrdU/FITC staining-based TUNEL assay (reference value: 0.8%); format: functional
[29] = system: A2780; assay: Induction of apoptosis in human A2780 cells assessed as apoptotic cells at 460.6 uM after 24 hrs by Annexin-V-FITC/propidium iodide staining-based flow cytometric analysis (reference value: 2%); format: functional
[30] = system: LoVo; assay: Induction of apoptosis in human LoVo cells assessed as necrotic cells at 426 uM after 24 hrs by Annexin-V-FITC/propidium iodide staining-based flow cytometric analysis (reference value: 2.9%); format: functional
[31] = system: LoVo; assay: Induction of DNA fragmentation in human LoVo cells assessed as viable cells at 460.6 uM after 24 hrs by BrdU/FITC staining-based TUNEL assay (reference value: 99.2%); format: functional; conditions: read-out: Activity
[32] = system: A2780; assay: Induction of DNA fragmentation in human A2780 cells assessed as viable cells at 0.115 uM after 24 hrs by BrdU/FITC staining-based TUNEL assay (reference value: 96.1%); format: functional; conditions: A2780, 24 h, read-out: Activity

CC(=O)OC[C@H]1O[C@@H](O[C@H]2[C@H](OC(C)=O)[C@@H](OC(C)=O)[C@H](S[C@@H]3CC(=O)[C@@H]4OC[C@H]3O4)O[C@@H]2COC(C)=O)[C@H](OC(C)=O)[C@@H](OC(C)=O)[C@H]1OC(C)=O
Activity [1]: 12.5% | IC50 [2]: 875 µM | Activity [3]: <10% | Activity [4]: 10 - 20% | IC20 [5]: 0.115 µM | IC50 [5]: 461 µM | Activity [6]: <10% | viability at 426 µM [7]: 71.2% | viability at 0.115 µM [8]: 91.6% | Activity [9]: 15.5% | Activity [10]: 41% | Activity [11]: 9.4% | IC50 [12]: 913 µM | Activity [13]: inactive | viability at 0.115 µM [14]: 96.7% | viability at 0.106 µM [15]: 82% | Activity [16]: <10% | Activity [17]: 1.4% | Activity [18]: 5.5% | IC50 [19]: 827 µM | Activity [20]: <10% | viability at 460.6 µM [21]: 71.4% | Activity [22]: 7% | Activity [23]: inactive | Activity [24]: 5.7% | IC20 [25]: 106 µM | IC50 [25]: 426 µM | viability at 460.6 µM [26]: 59% | Activity [27]: 16.3% | Activity [28]: 6.3% | Activity [29]: 22.9% | Activity [30]: 12.6% | viability at 460.6 µM [31]: 90.6% | viability at 0.115 µM [32]: 85.5%
